Source: patent US12350270B2, “Antimalarial agents” (Merck Sharp & Dohme LLC, priority 2019, dated 2025)

system: parasites (ring stage, in human red blood cell culture); assay: Parasite LDH growth assay (antiparasite potency, Parasite Assay); type: cell-based, Plasmodium falciparum; details: Plasmodium falciparum, Erythrocyte, 72 h, 0.7% rings, 2% haematocrit, 72 hours at 37° C., LDH readout of parasite growth
Method in brief: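 Growth was read by an LDH assay after a freeze–thaw cycle (−80 °C overnight, 4 h thaw at RT). Before that, parasites grew with compound for 72 h at 37 °C under gassed, humidified conditions. The input was a ring-stage culture adjusted to 0.7% parasitemia and 2% haematocrit in serum (5%)/albumax (0.5%)-supplemented RPMI-Hepes.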

| Compound | EC50 |
| --- | --- |
| CC1(C)CC(=O)N([C@@H]2CCS(=O)(=O)c3ccc(C(=O)N[C@H]4CC(C)(C)Oc5ccccc54)cc32)C(=N)N1 [Example 220, (4R)-N-[(4S)-2,2-dimethylchroman-4-yl]-4-(2-imino-4,4-dimethyl-6-oxo-hexahydropyrimidin-1-yl)-1,1-dioxo-3,4-dihydro-2H-thiochromene-6-carboxamide] | 2.9 nM |
| CC1(C)CC(=O)N([C@H]2CCS(=O)(=O)c3ccc(C(=O)N[C@H]4CC(C)(C)Oc5ccccc54)cc32)C(=N)N1 [Example 221, (4S)-N-[(4S)-2,2-dimethylchroman-4-yl]-4-(2-imino-4,4-dimethyl-6-oxo-hexahydropyrimidin-1-yl)-1,1-dioxo-3,4-dihydro-2H-thiochromene-6-carboxamide] | 190 nM |
| CCC1(CC)CC(=O)N([C@@H]2CCS(=O)(=O)c3ccc(C(=O)N[C@@H]4c5ccccc5C[C@H]4O)cc32)C(=N)N1 [Example 222, (4R)-4-(4,4-diethyl-2-imino-6-oxo-hexahydropyrimidin-1-yl)-N-[(1R,2R)-2-hydroxyindan-1-yl]-1,1-dioxo-3,4-dihydro-2H-thiochromene-6-carboxamide] | 15.6 nM |
| CCC1(CC)CC(=O)N([C@H]2CCS(=O)(=O)c3ccc(C(=O)N[C@@H]4c5ccccc5C[C@H]4O)cc32)C(=N)N1 [Example 223, (4S)-4-(4,4-diethyl-2-imino-6-oxo-hexahydropyrimidin-1-yl)-N-[(1R,2R)-2-hydroxyindan-1-yl]-1,1-dioxo-3,4-dihydro-2H-thiochromene-6-carboxamide] | 300 nM |
| CC[C@]1(C)CC(=O)N([C@@H]2CCOc3ccc(C(=O)N[C@@H]4c5cc(F)ccc5OC(C)(C)[C@H]4O)cc32)C(=N)N1 [Example 224, (4R)-4-[(4R)-4-ethyl-2-imino-4-methyl-6-oxo-hexahydropyrimidin-1-yl]-N-[(3S,4R)-6-fluoro-3-hydroxy-2,2-dimethyl-chroman-4-yl]chromane-6-carboxamide] | 0.3 nM |
| CC[C@@]1(C)CC(=O)N([C@@H]2CCOc3ccc(C(=O)N[C@@H]4c5cc(F)ccc5OC(C)(C)[C@H]4O)cc32)C(=N)N1 [Example 225, (4R)-4-[(4S)-4-ethyl-2-imino-4-methyl-6-oxo-hexahydropyrimidin-1-yl]-N-[(3S,4R)-6-fluoro-3-hydroxy-2,2-dimethyl-chroman-4-yl]chromane-6-carboxamide] | 0.8 nM |
| CCC1(CC)CC(=O)N([C@@H]2CCOc3ccc(C(=O)NC4c5ccccc5C(F)(F)C4(C)C)cc32)C(=N)N1 (stereo partly drawn) [Example 227, (4R)-4-(4,4-diethyl-2-imino-6-oxo-hexahydropyrimidin-1-yl)-N-(3,3-difluoro-2,2-dimethyl-indan-1-yl)chromane-6-carboxamide] | 1.3 nM |
| CC1(C)CC(=O)N(C2CCS(=O)(=O)c3ccc(C(=O)N[C@@H]4c5ccccc5OC[C@@]4(C)O)cc32)C(=N)N1 (stereo partly drawn) [Example 228, N-[(3S,4R)-3-hydroxy-3-methyl-chroman-4-yl]-4-(2-imino-4,4-dimethyl-6-oxo-hexahydropyrimidin-1-yl)-1,1-dioxo-3,4-dihydro-2H-thiochromene-6-carboxamide] | 282 nM |
| CC1(C)CC(=O)N(C2CCS(=O)(=O)c3ccc(C(=O)N[C@@H]4c5ccccc5OC[C@]4(C)O)cc32)C(=N)N1 (stereo partly drawn) [Example 229, N-[(3R,4R)-3-hydroxy-3-methyl-chroman-4-yl]-4-(2-imino-4,4-dimethyl-6-oxo-hexahydropyrimidin-1-yl)-1,1-dioxo-3,4-dihydro-2H-thiochromene-6-carboxamide] | 59.3 nM |
| CC[C@]1(C)CC(=O)N([C@@H]2CCOc3ccc(C(=O)N[C@@H]4c5cc(Cl)ccc5OC[C@@]4(C)O)cc32)C(=N)N1 [Example 230, (4R)-N-[(3S,4R)-6-chloro-3-hydroxy-3-methyl-chroman-4-yl]-4-[(4R)-4-ethyl-2-imino-4-methyl-6-oxo-hexahydropyimidin-1-yl]chromane-6-carboxamide] | 2.7 nM |
| CCC1(CC)CC(=O)N([C@@H]2CCOc3ccc(C(=O)N[C@@H]4c5cc(Cl)ccc5OC[C@H]4O)cc32)C(=N)N1 [Example 231, (4R)-N-[(3S,4R)-6-chloro-3-hydroxy-chroman-4-yl]-4-(4,4-diethyl-2-imino-6-oxo-hexahydropyrimidin-1-yl)chromane-6-carboxamide] | 7.4 nM |
| CC[C@]1(C)CC(=O)N([C@H]2c3cc(C(=O)N[C@@H]4c5ccccc5C(F)(F)[C@H]4O)ccc3OC[C@@H]2OC)C(=N)N1 [Example 232, (3R,4S)-N-[(1R,2S)-3,3-difluoro-2-hydroxy-indan-1-yl]-4-[(4R)-4-ethyl-2-imino-4-methyl-6-oxo-hexahydropyrimidin-1-yl]-3-methoxy-chromane-6-carboxamide] | 21.8 nM |
| CCC1(CC)CC(=O)N([C@@H]2CCOc3ccc(C(=O)NC(CC4CCCCC4)c4ccccc4)cc32)C(=N)N1 (stereo partly drawn) [Example 233, (4R)-N-(2-cyclohexyl-1-phenyl-ethyl)-4-(4,4-diethyl-2-imino-6-oxo-hexahydropyrimidin-1-yl)chromane-6-carboxamide] | 7.9 nM |
| CCC1(CC)CC(=O)N([C@H]2c3cc(C(=O)N[C@@H]4c5ccccc5C[C@@]4(C)O)ccc3OC[C@H]2COC)C(=N)N1 [Example 235, (3R,4R)-4-(4,4-diethyl-2-imino-6-oxo-hexahydropyrimidin-1-yl)-N-[(1R,2R)-2-hydroxy-2-methyl-indan-1-yl]-3-(methoxymethyl)chromane-6-carboxamide] | 0.7 nM |
| CCC1(CC)CC(=O)N([C@@H]2C[C@@H](OC)c3ccc(C(=O)N[C@@H]4c5ccccc5OC(C)(C)[C@H]4O)cc32)C(=N)N1 [Example 236, (1R,3R)-3-(4,4-diethyl-2-imino-6-oxo-hexahydropyrimidin-1-yl)-N-[(3S,4R)-3-hydroxy-2,2-dimethyl-chroman-4-yl]-1-methoxy-indane-5-carboxamide] | 0.9 nM |
| CCC1(CC)CC(=O)N([C@H]2C[C@H](OC)c3ccc(C(=O)N[C@@H]4c5ccccc5OC(C)(C)[C@H]4O)cc32)C(=N)N1 [Example 237, (1S,3S)-3-(4,4-diethyl-2-imino-6-oxo-hexahydropyrimidin-1-yl)-N-[(3S,4R)-3-hydroxy-2,2-dimethyl-chroman-4-yl]-1-methoxy-indane-5-carboxamide] | 240 nM |
| CCC1(CC)CC(=O)N([C@H]2C[C@@H](OC)c3ccc(C(=O)N[C@@H]4c5ccccc5OC(C)(C)[C@H]4O)cc32)C(=N)N1 [Example 238, (1R,3S)-3-(4,4-diethyl-2-imino-6-oxo-hexahydropyrimidin-1-yl)-N-[(3S,4R)-3-hydroxy-2,2-dimethyl-chroman-4-yl]-1-methoxy-indane-5-carboxamide] | 47.8 nM |
| CCC1(CC)CC(=O)N([C@@H]2C[C@H](OC)c3ccc(C(=O)N[C@@H]4c5ccccc5OC(C)(C)[C@H]4O)cc32)C(=N)N1 [Example 239, (1S,3R)-3-(4,4-diethyl-2-imino-6-oxo-hexahydropyrimidin-1-yl)-N-[(3S,4R)-3-hydroxy-2,2-dimethyl-chroman-4-yl]-1-methoxy-indane-5-carboxamide] | 0.9 nM |
| CCC1(CC)CC(=O)N([C@H]2c3cc(C(=O)N[C@@H]4c5ccccc5OC(C)(C)[C@H]4O)ccc3OC[C@@H]2C)C(=N)N1 [Example 240, (3R,4R)-4-(4,4-diethyl-2-imino-6-oxo-hexahydropyrimidin-1-yl)-N-[(3S,4R)-3-hydroxy-2,2-dimethyl-chroman-4-yl]-3-methyl-chromane-6-carboxamide] | 0.6 nM |
| CCC1(CC)CC(=O)N([C@H]2c3cc(C(=O)N[C@@H]4c5ccccc5OC(C)(C)[C@H]4O)ccc3OC[C@H]2C)C(=N)N1 [Example 241, (3S,4R)-4-(4,4-diethyl-2-imino-6-oxo-hexahydropyrimidin-1-yl)-N-[(3S,4R)-3-hydroxy-2,2-dimethyl-chroman-4-yl]-3-methyl-chromane-6-carboxamide] | 0.4 nM |
| CC[C@]1(C)CC(=O)N(C2c3cc(C(=O)N[C@@H]4c5ccccc5OC(C)(C)[C@H]4O)ccc3OCC2(C)C)C(=N)N1 (stereo partly drawn) [Example 243, 4-[(4R)-4-ethyl-2-imino-4-methyl-6-oxo-hexahydropyrimidin-1-yl]-N-[(3S,4R)-3-hydroxy-2,2-dimethyl-chroman-4-yl]-3,3-dimethyl-chromane-6-carboxamide] | 6.1 nM |
| CCC1(CC)CC(=O)N(C2c3cc(C(=O)N[C@@H]4c5ccccc5C[C@H]4O)ccc3OCC2(C)COC)C(=N)N1 (stereo partly drawn) [Example 244, 4-(4,4-diethyl-2-imino-6-oxo-hexahydropyrimidin-1-yl)-N-[(1R,2R)-2-hydroxyindan-1-yl]-3-(methoxymethyl)-3-methyl-chromane-6-carboxamide] | 7.8 nM |
| CCC1(CC)CC(=O)N([C@H]2c3cc(C(=O)N[C@@H]4c5ccccc5OC(C)(C)[C@H]4O)ccc3OC2(C)C)C(=N)N1 [Example 245, (3S)-3-(4,4-diethyl-2-imino-6-oxo-hexahydropyrimidin-1-yl)-N-[(3S,4R)-3-hydroxy-2,2-dimethyl-chroman-4-yl]-2,2-dimethyl-3H-benzofuran-5-carboxamide] | 0.8 nM |
| CCC1(CC)CC(=O)N([C@@H]2C[C@@H](C)Oc3ccc(C(=O)N[C@@H]4c5ccccc5OC(C)(C)[C@H]4O)cc32)C(=N)N1 [Example 246, (2R,4R)-4-(4,4-diethyl-2-imino-6-oxo-hexahydropyrimidin-1-yl)-N-[(3S,4R)-3-hydroxy-2,2-dimethyl-chroman-4-yl]-2-methyl-chromane-6-carboxamide] | 2 nM |
| CCC1(CC)CC(=O)N([C@H]2c3cc(C(=O)N[C@@H]4c5ccccc5OC[C@@]4(C)O)ccc3CC[C@@H]2OC)C(=N)N1 [Example 247, (3S,4S)-4-(4,4-diethyl-2-imino-6-oxo-hexahydropyrimidin-1-yl)-N-[(3S,4R)-3-hydroxy-3-methyl-chroman-4-yl]-3-methoxy-tetralin-6-carboxamide] | 4.5 nM |
| CCC1(CC)CC(=O)N([C@@H]2CCCOc3ccc(C(=O)N[C@@H]4c5ccccc5OC(C)(C)[C@H]4O)cc32)C(=N)N1 [Example 248, (5R)-5-(4,4-diethyl-2-imino-6-oxo-hexahydropyrimidin-1-yl)-N-[(3S,4R)-3-hydroxy-2,2-dimethyl-chroman-4-yl]-2,3,4,5-tetrahydro-1-benzoxepine-7-carboxamide] | 0.8 nM |
